Read-outs that look alike come from different tables or passages of the source.
Key:
[1] = test system: acutely dissociated and purified rat OPCs; test: Acute OL differentiation assay (MBP expression/cell, immunofluorescent image quantification); assay type: cell-based; conditions: for activation at 2 µM / activation at 10 µM / activation at 0.4 µM / activation at 0.08 µM: sheet "All OLga data"; for activation at 0.08 µM: 0.08 uM test compound, read-out: OL differentiation, 0.08 uM (% Quet)
Summary of the method: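 This acute differentiation assay used purified rat OPCs from postnatal day 6–7 pups, seeded into PDL/laminin-coated 96-well plates in differentiation medium lacking PDGF and FGF. Compounds were applied in quadruplicate after a 1–2 h preincubation at 37 °C, 10 % CO2, with 0.1 % DMSO negative and 40 ng/ml T3 positive controls in eight wells. After fixation on DIV4, anti-MBP immunofluorescence images yielded MBP expression/cell.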

expanded OPCs = test: cells; conditions: for 0.1 µM (% DMSO) / 1 µM (% DMSO) / 10 µM (% DMSO): alamarBlue viability of expanded OPCs, relative to DMSO control; for 0.1 µM (% DMSO): compound at 0.1 µM; for 1 µM (% DMSO): compound at 1 µM; for 10 µM (% DMSO): compound at 10 µM; for viability at 0.1 µM / viability at 1 µM / viability at 10 µM: Rattus norvegicus, 72 h
Summary of the method: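 Toxicity screen: compounds added at 0.1, 1 and 10 µM to PDGF-AA-expanded OPCs in 96-well plates, 3-day incubation at 37 °C, 10% CO2, then alamarBlue 1:10 for 4 h with fluorescence readout. Results set screening doses of 10/2, 2/0.4 or 0.4/0.08 µM.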

[2] = Rattus norvegicus, test compound at 2 uM, MBP expression relative to quetiapine, NCC library screen, read-out: 2 uM (% Quet)
[3] = Rattus norvegicus, test compound at 10 uM, MBP expression relative to quetiapine, NCC library screen, read-out: 10 uM (% Quet)
[4] = Rattus norvegicus, test compound at 2 uM, NCC library screen, relative to quetiapine, read-out: 2 uM (% Quet)
[5] = Rattus norvegicus, test compound at 10 uM, NCC library screen, relative to quetiapine, read-out: 10 uM (% Quet)
[6] = read-out: 0.1 µM (% DMSO), alamarBlue viability, NCC library compound at 0.1 µM, sheet "All Tox data"
[7] = read-out: 1 µM (% DMSO), alamarBlue viability, NCC library compound at 1 µM, sheet "All Tox data"
[8] = read-out: 10 µM (% DMSO), alamarBlue viability, NCC library compound at 10 µM, sheet "All Tox data"
[9] = Rattus norvegicus, 0.4 uM test compound, relative to quetiapine, read-out: OL differentiation, 0.4 uM (% Quet)
[10] = Rattus norvegicus, 2 uM test compound, relative to quetiapine, read-out: OL differentiation, 2 uM (% Quet)
[11] = read-out: 0.1 µM (% DMSO), alamarBlue viability of expanded OPCs, compound at 0.1 µM, sheet All Tox data
[12] = read-out: 1 µM (% DMSO), alamarBlue viability of expanded OPCs, compound at 1 µM, sheet All Tox data
[13] = read-out: 10 µM (% DMSO), alamarBlue viability of expanded OPCs, compound at 10 µM, sheet All Tox data
[14] = Rattus norvegicus, 10 uM test compound, relative to quetiapine, read-out: OL differentiation, 10 uM (% Quet)
[15] = Rattus norvegicus, relative to quetiapine
[16] = Rattus norvegicus, test compound at 0.4 uM, NCC library screen, relative to quetiapine, read-out: 0.4 uM (% Quet)

Row | SMILES | activation at 2 µM [1, 4] [%] | activation at 2 µM [1, 10] [%] | viability at 0.1 µM (expanded OPCs; [11]) [%] | viability at 1 µM (expanded OPCs; [12]) [%] | viability at 10 µM (expanded OPCs; [13]) [%] | activation at 10 µM [1, 14] [%] | further results
1 | c1ccc(CC2=NCCN2)cc1 [Tolazoline] |  |  |  |  |  |  | activation at 2 µM [1, 2]: -2.4%; activation at 10 µM [1, 3]: -19.3%; 0.1 µM (% DMSO) (expanded OPCs): 90.4 % DMSO; 1 µM (% DMSO) (expanded OPCs): 94.2 % DMSO; 10 µM (% DMSO) (expanded OPCs): 86.6 % DMSO
2 | CCCCNC(=O)NS(=O)(=O)c1ccc(C)cc1 [Tolbutamide] | -1.3 |  |  |  |  |  | activation at 10 µM [1, 5]: 20.2%; viability at 0.1 µM (expanded OPCs; [6]): 105%; viability at 1 µM (expanded OPCs; [7]): 107%; viability at 10 µM (expanded OPCs; [8]): 117%
3 | Cc1ccc(O)c([C@H](CCN(C(C)C)C(C)C)c2ccccc2)c1 [Tolterodine] |  | -0.9 | 88.4 | 87.8 | 46.5 |  | activation at 0.4 µM [1, 9]: -6.8%
4 | CC1(C)O[C@@H]2[C@@H](CO[C@@]3(COS(N)(=O)=O)OC(C)(C)O[C@@H]23)O1 [Topiramate] |  | 8.5 | 94 | 93.5 | 86.5 | 0.05 | 
5 | CC[C@@]1(O)C(=O)OCc2c1cc1n(c2=O)Cc2cc3c(CN(C)C)c(O)ccc3nc2-1 [Topotecan] |  |  | 72 | 49.7 | 12.3 |  | activation at 0.08 µM [1, 15]: -46.4%; activation at 0.4 µM [1, 9]: -124%
6 | CN(C)CCOc1ccc(/C(=C(/CCCl)c2ccccc2)c2ccccc2)cc1 [Toremifene, reference compound] | -169 |  |  |  |  |  | activation at 0.4 µM [1, 16]: 74.9%; EC50 ([1]; Rattus norvegicus, average EC50 for induction of OL differentiation from independent biological replicates, eight concentrations): 100 nM; hit in OL differentiation assay, MRF-TMC ([1]; ● = confirmed hit in this paper's assay): ●; viability at 0.1 µM (expanded OPCs; [6]): 174%; viability at 1 µM (expanded OPCs; [7]): 57.8%; viability at 10 µM (expanded OPCs; [8]): 9.9%
7 | Cc1cccc(Nc2ccncc2S(=O)(=O)NC(=O)NC(C)C)c1 [Torsemide] |  | 31.2 | 90.5 | 88.3 | 93.4 | -6.1 | 
8 | NC1CCN(c2nc3c(cc2F)c(=O)c(C(=O)O)cn3-c2ccc(F)cc2F)C1 (stereo not shown) [Tosufloxacin] |  | -17.9 | 95.4 | 104 | 92.2 | -6.5 | 
9 | COc1cccc(C2(O)CCCCC2CN(C)C)c1 (stereo not shown) [Tramadol] | -1.7 |  |  |  |  |  | activation at 10 µM [1, 5]: -9.7%; viability at 0.1 µM (expanded OPCs; [6]): 100%; viability at 1 µM (expanded OPCs; [7]): 107%; viability at 10 µM (expanded OPCs; [8]): 96.7%
10 | COc1ccc(/C=C/C(=O)Nc2ccccc2C(=O)O)cc1OC [Tranilast] |  | 5.9 | 90.5 | 90 | 85.8 | -18.5 | 
11 | O=c1n(CCCN2CCN(c3cccc(Cl)c3)CC2)nc2ccccn12 [Trazodone] |  | -7.5 | 90.8 | 78.9 | 84.9 | 55 | 
12 | O=C(O[C@H]1[C@H](Oc2ccccc2COC(=O)C2(O)C=CCCC2=O)O[C@H](CO)[C@@H](O)[C@@H]1O)c1ccccc1 (stereo partly shown) [Tremulacin] | -176 |  |  |  |  |  | activation at 0.4 µM [1, 16]: -46.7%; viability at 0.1 µM (expanded OPCs; [6]): 86.6%; viability at 1 µM (expanded OPCs; [7]): 85.4%; viability at 10 µM (expanded OPCs; [8]): 20.7%
13 | CC1(C)O[C@@H]2C[C@H]3[C@@H]4CCC5=CC(=O)C=C[C@]5(C)[C@@]4(F)[C@@H](O)C[C@]3(C)[C@]2(C(=O)CO)O1 [Triamcinolone Acetonide] | -1.9 |  |  |  |  |  | activation at 10 µM [1, 5]: 1.9%; viability at 0.1 µM (expanded OPCs; [6]): 133%; viability at 1 µM (expanded OPCs; [7]): 127%; viability at 10 µM (expanded OPCs; [8]): 127%
14 | Nc1nc(N)c2nc(-c3ccccc3)c(N)nc2n1 [Triamterene] | 0.9 |  |  |  |  |  | activation at 10 µM [1, 5]: -18.8%; viability at 0.1 µM (expanded OPCs; [6]): 94.9%; viability at 1 µM (expanded OPCs; [7]): 96.5%; viability at 10 µM (expanded OPCs; [8]): 95.3%
15 | CSc1nc2cc(Cl)c(Oc3cccc(Cl)c3Cl)cc2[nH]1 [Triclabendazole] |  | -46.6 | 96.9 | 131 | 11.1 |  | activation at 0.4 µM [1, 9]: -13.1%
16 | Oc1cc(Cl)ccc1Oc1ccc(Cl)cc1Cl [Triclosan] |  |  |  |  |  |  | activation at 0.4 µM [1, 16]: 8.6%; 0.1 µM (% DMSO) (expanded OPCs): 100.2 % DMSO; 1 µM (% DMSO) (expanded OPCs): 117.5 % DMSO; 10 µM (% DMSO) (expanded OPCs): 9.2 % DMSO
17 | OC(CCN1CCCCC1)(c1ccccc1)C1CCCCC1 (stereo not shown) [Trihexyphenidyl] |  |  |  |  |  |  | activation at 2 µM [1, 2]: -19.1%; activation at 10 µM [1, 3]: -45.6%; 0.1 µM (% DMSO) (expanded OPCs): 90.6 % DMSO; 1 µM (% DMSO) (expanded OPCs): 84.6 % DMSO; 10 µM (% DMSO) (expanded OPCs): 67.7 % DMSO
18 | N[C@@H](Cc1cc(I)c(Oc2ccc(O)c(I)c2)c(I)c1)C(=O)O [Triiodothyronine] | -36.3 |  |  |  |  |  | activation at 10 µM [1, 5]: -37.8%; 0.1 µM (% DMSO) (expanded OPCs): 237.5 % DMSO; 1 µM (% DMSO) (expanded OPCs): 217.6 % DMSO; 10 µM (% DMSO) (expanded OPCs): 207.1 % DMSO
19 | CCC(COC(=O)c1cc(OC)c(OC)c(OC)c1)(c1ccccc1)N(C)C (stereo not shown) [Trimebutine] |  | 31.4 | 113 | 135 | 147 | -25.8 | 
20 | COc1cc(Cc2cnc(N)nc2N)cc(OC)c1OC [Trimethoprim] | -30.5 |  |  |  |  |  | activation at 10 µM [1, 5]: -40.8%; 0.1 µM (% DMSO) (expanded OPCs): 93.8 % DMSO; 1 µM (% DMSO) (expanded OPCs): 89.7 % DMSO; 10 µM (% DMSO) (expanded OPCs): 86.5 % DMSO
21 | CN(C)CCN(Cc1ccccc1)c1ccccn1 [Tripelennamine] |  | 8.2 | 82.9 | 86.1 | 80.7 | 31.1 | 
22 | CC(C)[C@]12O[C@H]1[C@@H]1O[C@]13[C@]1(O[C@H]1C[C@H]1C4=C(CC[C@@]13C)C(=O)OC4)[C@@H]2O [Triptolide] |  |  | 73.9 | 13.2 | 13.7 |  | activation at 0.08 µM [1, 15]: 3.9%; activation at 0.4 µM [1, 9]: -23.3%
23 | CN1[C@@H]2CC[C@H]1C[C@@H](OC(=O)c1c[nH]c3ccccc13)C2 [Tropisetron] |  | 37.9 | 98.4 | 90.9 | 82.5 | 16.9 | 
24 | COc1cc(C(=O)NC2CCCNC2)cc(OC)c1OC (stereo not shown) [Troxipide] |  | 18 | 102 | 115 | 109 | -6.8 | 

From PMC5011342, “A high throughput drug screening assay to identify compounds that promote oligodendrocyte differentiation using acutely dissociated and purified oligodendrocyte precursor cells” (BMC Research Notes, 2016)
